Holding throughout (experiment): NCI-60 cell line screen, 48 h
The subject of assay [1] is CAKI-1 renal.
Assay [2] deals with EKVX NSCLC.
The subject of assay [3] is HS 578T breast.
Assay [4] deals with IGROV1 ovarian.
Assay [5] relates to NCI-H522 lung.
In assay [6] the test system is OVCAR-3 ovarian.
In assay [7] the test system is OVCAR-5 ovarian.
Assay [8] deals with OVCAR-8 ovarian.
The test system of assay [9] is UACC-62 melanoma.
The subject of assay [10] is UO-31 renal.

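Protocol summary: plate cells (96-well), add compound at 5 concentrations, incubate 48 h, interpolate endpoints linearly. Abbreviation: GI50, concentration required for 50% inhibition of growth. TGI: concentration producing complete growth inhibition.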 Bounds are passed on as bounds.

As for `C[C@H]1c2cccc(O)c2C(O)=C2C(=O)[C@]3(O)C(O)=C(C(N)=O)C(=O)[C@@H](N(C)C)[C@@H]3[C@@H](O)[C@@H]21`, the GI50 was 2.08 µM in [1]; 3.31 µM in assay [2]; 3.42 µM in assay [3]; 2.86 µM in assay [4]; 3.16 µM in assay [5]; 2.5 µM in assay [6]. The GI50 was 5.22 µM in assay [7], 3.29 µM in assay [8], 2.53 µM in assay [9] and 3.15 µM in [10]. Besides, the TGI in [1] is 8.67 µM; in [2], 15.5 µM; in [3] it was 27 µM; in assay [4], 9.26 µM; in [5], 12.4 µM; in assay [6], 6.85 µM. In addition, the TGI in assay [7] worked out at 95.4 µM; in assay [8] it was 14.7 µM; in assay [9] it was 9.68 µM; in assay [10], 15.1 µM.
For the compound `COc1ccc(N2C(=O)C(c3ccccc3)(c3ccccc3)C23C(=O)N(C)c2ccccc23)cc1` (centres undefined), the GI50 in [1], in [2], in [3], in assay [4], in [5] and in assay [6] was > 100 µM in each case. For the same compound, the GI50 in assay [7], in [8], in assay [9] and in assay [10] was > 100 µM in each case. For the same compound, the TGI in assay [1], in assay [2], in assay [3], in [4], in assay [5] and in assay [6] was > 100 µM throughout. Moreover, the TGI in [7], in assay [8], in [9] and in assay [10] was > 100 µM throughout.
As to `Cc1ccc(C(SCC(N)C(=O)O)(c2ccccc2)c2ccc(C)cc2)cc1` (centres undefined), the GI50 in assay [1] is 0.402 µM; in [2] it was 0.357 µM; in assay [3] it was 0.0485 µM; in [4], 0.526 µM; in assay [5], 0.132 µM; in assay [6], 0.192 µM. In addition, the GI50 in assay [7] was 1.11 µM; in [8], 0.433 µM; in [9] it was 0.119 µM; in assay [10], 7.96 µM. The TGI in assay [1] is 20.1 µM; in assay [2], > 46.8 µM; in assay [3], 2.17 µM; in [4], 26.1 µM; in assay [5] it was 2.58 µM; in assay [6] it was 2.64 µM. Besides, the TGI in [7] is 24.4 µM; in [8], 44.2 µM; in assay [9], 17.3 µM; in assay [10] it was > 55 µM.
On to `C[As](C)SC1OC(CO)C(O)C1O` (centres undefined), for which the GI50 in assay [1] was 0.0487 µM; in assay [2], 0.877 µM; in assay [3], 0.968 µM; in [4] it was 1.32 µM; in [5] it was 0.167 µM; in assay [6], 0.0623 µM. Besides, the GI50 in assay [7] was 0.864 µM; in [8], 0.694 µM; in assay [9], 0.385 µM; in assay [10], 0.0973 µM. For the same compound, the TGI in assay [1] came out at 0.402 µM; in assay [2], 10.4 µM; in assay [3], 7.59 µM; in assay [4], 6.56 µM; in [5] it was 0.477 µM; in assay [6], 0.203 µM. Also, the TGI in assay [7] came to 5.33 µM; in assay [8], 3.15 µM; in assay [9] it was 1.54 µM; in assay [10] it was 0.555 µM.
`C=C(F)C(=O)N1CCN(c2nc(OC[C@@H]3CCCN3C)nc3c2CCN(c2cccc4cccc(Cl)c24)C3)C[C@@H]1CC#N`: the GI50 in [1] is 0.926 µM; in assay [2] it was 1.93 µM; in assay [3], 1.76 µM; in assay [4] it was 1.31 µM; in assay [5] it was 0.441 µM; in assay [6] it was 1.15 µM. Besides, the GI50 in [7] was 0.485 µM; in assay [8], 0.473 µM; in assay [9] it was 1.66 µM; in assay [10] it was 1.13 µM. Also, the TGI was 2.44 µM in [1]; 7.53 µM in [2]; 4.4 µM in assay [3]; 3.2 µM in [4]; 1.73 µM in [5]; 3.28 µM in [6]. In addition, the TGI was found to be 2.56 µM in assay [7], 1.79 µM in assay [8], 3.25 µM in assay [9] and 2.57 µM in assay [10].
Consider `Cc1ccc(Cl)cc1Nc1nc(C(F)(F)F)ccc1C(=O)N1CCN(c2ccc(F)cc2)CC1`, for which the GI50 in assay [1] was 1.53 µM; in assay [2] it was 12.8 µM; in [3], 4.31 µM; in assay [4], 0.21 µM; in [5], 12.3 µM; in assay [6], 10.7 µM. The GI50 in assay [7] was 12.1 µM; in assay [8] it was 16.6 µM; in assay [9], 11.5 µM; in assay [10], 4.49 µM. Besides, the TGI came out at 14.2 µM in assay [1]; 45.4 µM in [2]; 22.3 µM in [3]; 27.2 µM in [4]; 30.2 µM in assay [5]; 24 µM in [6]. Moreover, the TGI in assay [7] worked out at 30.1 µM; in [8], 50.2 µM; in assay [9] it was 24.1 µM; in assay [10] it was 22.5 µM.
In the case of `CCCCc1c(OC)cc(O)c2c1C(=O)c1[nH]c(C(=O)O)c(O)c(=O)c1C2=O`, the TGI in assay [1] was > 100 µM; in [2] it was > 100 µM; in [3] it was 8.14 µM; in [4], 64.2 µM; in [5], 9.94 µM; in assay [6], 8.45 µM. Also, the TGI was found to be 65.3 µM in assay [7], 28.8 µM in assay [8], 6.96 µM in assay [9] and 13.8 µM in assay [10].
Take `COc1ccc(C(=O)c2cc(OC)c(C)c(OC)c2)cc1OC(=O)CCl`: the GI50 was 0.591 µM in [1]; 3.6 µM in assay [2]; 0.314 µM in assay [3]; 1.19 µM in [4]; 0.21 µM in assay [5]; 0.336 µM in assay [6]. Also, the GI50 was 4.37 µM in assay [7], 0.507 µM in assay [8], 1.61 µM in [9] and 0.628 µM in [10]. The TGI was 77.7 µM in assay [1]; > 100 µM in assay [2]; > 100 µM in [3]; > 100 µM in assay [4]; 14.1 µM in assay [5]; 10.8 µM in assay [6]. The TGI in [7] is > 100 µM; in assay [8] it was > 100 µM; in assay [9], 22.4 µM; in [10], 74 µM.
As for `COc1cc(C(=O)c2cc(C)c3[nH]c4ccc(Cl)cc4c3c2C)cc(OC)c1OC`, the GI50 was 0.0521 µM in assay [1]; 0.254 µM in [2]; 0.0364 µM in assay [3]; 0.0438 µM in [4]; 0.0291 µM in assay [5]; 0.0329 µM in assay [6]. Moreover, the GI50 in [7] was 0.0635 µM; in assay [8] it was 0.0439 µM; in assay [9] it was 0.0376 µM; in [10], 0.12 µM. For the same compound, the TGI in assay [1] is 12.5 µM; in [2], 23.4 µM; in assay [3] it was 10.6 µM; in assay [4], 12.3 µM; in assay [5], 1.95 µM; in [6], 7.16 µM. In addition, the TGI amounted to 18 µM in assay [7], 10.7 µM in [8], 8.4 µM in assay [9] and 11.5 µM in [10].
Take `CC1OC2CC(=O)OC2C2=C1C(=O)c1c(O)cccc1C2=O` (centres undefined): the GI50 in assay [1] was 0.0423 µM; in assay [2] it was 0.407 µM; in [3], 0.261 µM; in assay [4], 0.0508 µM; in [5], < 0.0168 µM; in assay [6], 0.0297 µM. Besides, the GI50 in assay [7] was 0.204 µM; in assay [8] it was 0.0501 µM; in assay [9], 0.135 µM; in [10], 0.0725 µM. Moreover, the TGI came to 0.148 µM in assay [1]; 1.59 µM in assay [2]; 0.112 µM in assay [4]; 0.0402 µM in assay [5]; 0.0851 µM in assay [6]; 0.44 µM in assay [7]. Besides, the TGI in assay [8] is 0.36 µM; in [9], 0.287 µM; in assay [10] it was 0.23 µM.
Consider `O=C(CCCn1ccnc1[N+](=O)[O-])NCCn1cncc1[N+](=O)[O-]`, for which the TGI in [1], in [2], in [3], in assay [4], in assay [5] and in assay [6] was > 100 µM each time. For the same compound, the TGI in assay [7], in [8], in [9] and in assay [10] was > 100 µM each time.
Regarding `Oc1ccc(Cl)cc1Cc1cc(Cl)cc(Cl)c1O`, the GI50 in assay [1] is 7.86 µM; in assay [2], 3.75 µM; in assay [3], 2.61 µM; in [4], 6.31 µM; in assay [5], 3.43 µM; in assay [6] it was 2.83 µM. For the same compound, the GI50 in assay [7] was 11.3 µM; in [8], 12.8 µM; in assay [9], 4.55 µM; in assay [10], 3.48 µM. Also, the TGI in [1] was found to be 35.9 µM; in [2], 62.5 µM; in assay [3] it was 8.97 µM; in assay [4], 28.9 µM; in [5] it was 13.2 µM; in assay [6], 16.5 µM. Moreover, the TGI in [7] was found to be 26.6 µM; in [8], 76.4 µM; in assay [9] it was 18.8 µM; in assay [10], 15.2 µM.
`CNCCNc1c2c(c(NCCNC)c3c(CN(C)C)c[nH]c13)C(=O)c1ccccc1C2=O`: the GI50 was 4.71 µM in [1]; 2.13 µM in [2]; 1.7 µM in assay [3]; 0.933 µM in assay [4]; 0.514 µM in [5]; 1.03 µM in [6]. Further, the GI50 in assay [7] is 2.95 µM; in assay [8], 3.28 µM; in assay [9], 2.78 µM; in assay [10], 3 µM. Besides, the TGI in [1] stood at 16.8 µM; in [2], 5 µM; in assay [3] it was 7.92 µM; in assay [4] it was 12.9 µM; in assay [5] it was 3.59 µM; in [6], 6.8 µM. In addition, the TGI was 13.9 µM in assay [7], 13.6 µM in assay [8], 19.7 µM in [9] and 14.4 µM in [10].
With `COc1ccc2c(c1)C(C)Cc1c(Cl)ncnc1N2C` (centres undefined), the GI50 is 1.53 µM in assay [1]; 0.44 µM in assay [2]; 0.533 µM in assay [3]; 1.96 µM in assay [4]; 1.41 µM in assay [5]; 0.268 µM in assay [6]. The GI50 in assay [7] is 0.643 µM; in assay [8] it was 0.463 µM; in assay [9], 0.445 µM; in [10] it was 0.364 µM. For the same compound, the TGI in [1] was > 100 µM; in assay [2], 29.9 µM; in assay [3] it was 38.1 µM; in assay [4] it was > 69.6 µM; in assay [5], 4.02 µM; in [6], 0.75 µM. For the same compound, the TGI was > 100 µM in assay [7], 25.2 µM in assay [8], 19 µM in [9] and 42 µM in assay [10].
Turning to `Cn1c(=O)c2c(nc(Nc3cc(=O)[nH]c(=O)[nH]3)n2Cc2ccccc2)n(C)c1=O`, the GI50 in assay [1] was 50.1 µM; in assay [2], 56.6 µM; in assay [3], > 100 µM; in assay [4] it was > 100 µM; in assay [5] it was > 100 µM; in assay [6], > 100 µM. Besides, the GI50 in assay [7] is > 100 µM; in assay [8], > 100 µM; in assay [9], 65.8 µM; in assay [10], 77 µM. Besides, the TGI in assay [1], in assay [2], in assay [3], in [4], in assay [5] and in [6] was > 100 µM in each case. In addition, the TGI in assay [7], in assay [8], in assay [9] and in assay [10] was > 100 µM in each case.

The values above are taken from PubChem BioAssay (NCI).
